In ChEMBL document CHEMBL1201862, “PubChem BioAssay data set” (2004):
Calls of active or inactive are those of the source.

Experiments:
Large T antigen = Large T antigen (Simian virus 40, UniProt P03070); type: functional, Betapolyomavirus macacae;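 further: Confirmatory-stage PubChem screen for compounds that inhibit SV40 T antigen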
[1] = target: T1, Rac GTPase-activating protein 1 (Homo sapiens, UniProt Q9H0H5); experiment: MgcRacGAP GTPase-activating activity inhibitors, confirmation, biochemical, ADP Hunter fluorescence, primary and confirmatory (AID 624330); type: functional
T1 sequence (Q9H0H5 whole entry): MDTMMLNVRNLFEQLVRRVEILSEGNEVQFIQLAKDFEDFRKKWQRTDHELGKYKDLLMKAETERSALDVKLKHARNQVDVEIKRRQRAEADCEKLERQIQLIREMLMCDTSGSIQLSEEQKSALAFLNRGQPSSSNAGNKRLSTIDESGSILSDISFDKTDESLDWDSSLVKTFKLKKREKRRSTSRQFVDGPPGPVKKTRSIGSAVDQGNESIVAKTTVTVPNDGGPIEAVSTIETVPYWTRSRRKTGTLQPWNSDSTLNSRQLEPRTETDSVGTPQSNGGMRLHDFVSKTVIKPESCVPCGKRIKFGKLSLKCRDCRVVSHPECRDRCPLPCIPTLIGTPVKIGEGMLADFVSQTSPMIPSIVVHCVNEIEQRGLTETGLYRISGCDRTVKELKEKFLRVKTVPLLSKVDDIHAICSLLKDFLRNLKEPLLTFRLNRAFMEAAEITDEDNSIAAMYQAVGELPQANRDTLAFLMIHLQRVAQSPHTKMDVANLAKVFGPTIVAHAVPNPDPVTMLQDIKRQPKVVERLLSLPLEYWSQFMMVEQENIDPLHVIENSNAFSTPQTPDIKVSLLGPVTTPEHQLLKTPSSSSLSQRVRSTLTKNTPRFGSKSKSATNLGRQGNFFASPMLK

Streptokinase A = target: T2, Streptokinase A (Streptococcus pyogenes serotype M1, UniProt P10520); experiment: S. pyogenes streptokinase expression inhibitors, potency, dose response, plasminogen activation absorbance, OD405 (AID 1914); type: functional, Streptococcus pyogenes M1 GAS;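 further: secreted streptokinase activity via plasminogen activation per viability signal from cell pellet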
T2 sequence (P10520 whole entry): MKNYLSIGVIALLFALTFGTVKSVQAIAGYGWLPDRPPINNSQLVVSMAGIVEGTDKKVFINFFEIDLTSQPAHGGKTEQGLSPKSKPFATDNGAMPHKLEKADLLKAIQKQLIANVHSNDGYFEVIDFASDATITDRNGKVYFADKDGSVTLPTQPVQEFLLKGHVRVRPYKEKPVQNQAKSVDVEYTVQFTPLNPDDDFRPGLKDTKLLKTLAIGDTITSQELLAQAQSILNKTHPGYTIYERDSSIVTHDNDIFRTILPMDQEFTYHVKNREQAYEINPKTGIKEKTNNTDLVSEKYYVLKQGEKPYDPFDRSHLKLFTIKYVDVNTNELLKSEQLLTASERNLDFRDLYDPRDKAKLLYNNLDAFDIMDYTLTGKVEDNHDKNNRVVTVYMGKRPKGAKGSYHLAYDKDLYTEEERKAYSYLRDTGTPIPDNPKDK

Streptococcus = experiment: Group A Streptococcus viability loss, dose response, counter-screen for streptokinase expression inhibitor project, luminescence, BacTiterGlo (AID 1915); type: functional, organism-based;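 further: potency for reduction of bacterial viability or growth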
[2] = test system: Streptococcus sp. 'group A'; experiment: growth inhibition of control SK(-) GAS strain, dose response, counter-screen for streptokinase expression inhibitor project, luminescence, kanamycin, BacTiterGlo, confirmation (AID 1900); type: functional, organism-based
Protein skinhead-1 = target: T3, Protein skinhead-1 (Caenorhabditis elegans, UniProt P34707); type: functional
T3 sequence (P34707 whole entry): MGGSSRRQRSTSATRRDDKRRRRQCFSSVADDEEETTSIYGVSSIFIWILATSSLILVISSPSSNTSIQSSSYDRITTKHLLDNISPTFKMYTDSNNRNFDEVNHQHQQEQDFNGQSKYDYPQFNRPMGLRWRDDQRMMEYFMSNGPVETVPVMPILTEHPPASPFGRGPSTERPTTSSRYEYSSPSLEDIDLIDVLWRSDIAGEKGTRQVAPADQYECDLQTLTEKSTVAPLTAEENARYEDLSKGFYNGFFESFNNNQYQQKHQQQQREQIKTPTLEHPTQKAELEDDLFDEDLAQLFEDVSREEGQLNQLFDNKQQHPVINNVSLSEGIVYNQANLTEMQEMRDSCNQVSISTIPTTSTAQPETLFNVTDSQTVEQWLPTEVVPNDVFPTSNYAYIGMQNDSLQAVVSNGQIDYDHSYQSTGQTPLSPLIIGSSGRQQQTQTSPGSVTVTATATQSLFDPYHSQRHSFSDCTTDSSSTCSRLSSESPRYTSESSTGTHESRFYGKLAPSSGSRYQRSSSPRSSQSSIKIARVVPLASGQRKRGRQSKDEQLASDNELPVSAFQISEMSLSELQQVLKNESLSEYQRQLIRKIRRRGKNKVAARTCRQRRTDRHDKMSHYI

[3] = HEp-2 cell cytotoxicity, dose response, cytotoxicity control for RSV inhibitor project, HTS (AID 2410); type: functional; conditions: human respiratory syncytial virus
[4] = target: T4, Short transient receptor potential channel 4 (Mus musculus, UniProt Q9QUQ5); experiment: mouse TRPC4 channel activators, dose response, cell-based, HEK293 TRPC4/mu-opioid, Fluo-4 calcium (AID 434937); type: functional
T4 sequence (Q9QUQ5 whole entry): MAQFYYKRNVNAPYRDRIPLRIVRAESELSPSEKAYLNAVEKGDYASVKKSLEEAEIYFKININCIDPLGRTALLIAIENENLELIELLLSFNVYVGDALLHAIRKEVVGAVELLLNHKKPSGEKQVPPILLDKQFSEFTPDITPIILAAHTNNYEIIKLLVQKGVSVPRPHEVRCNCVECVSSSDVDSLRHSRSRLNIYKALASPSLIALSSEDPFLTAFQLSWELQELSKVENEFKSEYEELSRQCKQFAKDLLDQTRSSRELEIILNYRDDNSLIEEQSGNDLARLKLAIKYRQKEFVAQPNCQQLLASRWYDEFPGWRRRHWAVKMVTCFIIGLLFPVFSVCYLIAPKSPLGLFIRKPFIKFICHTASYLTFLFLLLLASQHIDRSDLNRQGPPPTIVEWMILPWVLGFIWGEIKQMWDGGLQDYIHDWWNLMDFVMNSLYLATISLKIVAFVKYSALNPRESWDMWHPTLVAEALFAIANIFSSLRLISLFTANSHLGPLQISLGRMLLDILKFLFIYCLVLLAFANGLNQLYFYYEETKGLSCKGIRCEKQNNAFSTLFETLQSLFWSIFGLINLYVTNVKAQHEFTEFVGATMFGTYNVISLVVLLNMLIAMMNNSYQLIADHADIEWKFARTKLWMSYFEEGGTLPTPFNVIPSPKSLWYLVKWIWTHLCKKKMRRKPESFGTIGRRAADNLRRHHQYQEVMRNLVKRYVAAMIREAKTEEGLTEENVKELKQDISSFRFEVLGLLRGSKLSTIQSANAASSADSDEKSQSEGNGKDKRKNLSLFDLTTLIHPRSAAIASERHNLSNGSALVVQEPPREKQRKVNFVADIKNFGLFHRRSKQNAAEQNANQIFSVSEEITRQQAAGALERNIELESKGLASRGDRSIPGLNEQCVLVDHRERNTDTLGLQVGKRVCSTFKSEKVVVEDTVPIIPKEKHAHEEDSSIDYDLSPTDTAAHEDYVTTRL

[5] = target: T5, Histone-lysine N-methyltransferase NSD2 (Homo sapiens, UniProt O96028); type: biochemical
T5 sequence (O96028 whole entry): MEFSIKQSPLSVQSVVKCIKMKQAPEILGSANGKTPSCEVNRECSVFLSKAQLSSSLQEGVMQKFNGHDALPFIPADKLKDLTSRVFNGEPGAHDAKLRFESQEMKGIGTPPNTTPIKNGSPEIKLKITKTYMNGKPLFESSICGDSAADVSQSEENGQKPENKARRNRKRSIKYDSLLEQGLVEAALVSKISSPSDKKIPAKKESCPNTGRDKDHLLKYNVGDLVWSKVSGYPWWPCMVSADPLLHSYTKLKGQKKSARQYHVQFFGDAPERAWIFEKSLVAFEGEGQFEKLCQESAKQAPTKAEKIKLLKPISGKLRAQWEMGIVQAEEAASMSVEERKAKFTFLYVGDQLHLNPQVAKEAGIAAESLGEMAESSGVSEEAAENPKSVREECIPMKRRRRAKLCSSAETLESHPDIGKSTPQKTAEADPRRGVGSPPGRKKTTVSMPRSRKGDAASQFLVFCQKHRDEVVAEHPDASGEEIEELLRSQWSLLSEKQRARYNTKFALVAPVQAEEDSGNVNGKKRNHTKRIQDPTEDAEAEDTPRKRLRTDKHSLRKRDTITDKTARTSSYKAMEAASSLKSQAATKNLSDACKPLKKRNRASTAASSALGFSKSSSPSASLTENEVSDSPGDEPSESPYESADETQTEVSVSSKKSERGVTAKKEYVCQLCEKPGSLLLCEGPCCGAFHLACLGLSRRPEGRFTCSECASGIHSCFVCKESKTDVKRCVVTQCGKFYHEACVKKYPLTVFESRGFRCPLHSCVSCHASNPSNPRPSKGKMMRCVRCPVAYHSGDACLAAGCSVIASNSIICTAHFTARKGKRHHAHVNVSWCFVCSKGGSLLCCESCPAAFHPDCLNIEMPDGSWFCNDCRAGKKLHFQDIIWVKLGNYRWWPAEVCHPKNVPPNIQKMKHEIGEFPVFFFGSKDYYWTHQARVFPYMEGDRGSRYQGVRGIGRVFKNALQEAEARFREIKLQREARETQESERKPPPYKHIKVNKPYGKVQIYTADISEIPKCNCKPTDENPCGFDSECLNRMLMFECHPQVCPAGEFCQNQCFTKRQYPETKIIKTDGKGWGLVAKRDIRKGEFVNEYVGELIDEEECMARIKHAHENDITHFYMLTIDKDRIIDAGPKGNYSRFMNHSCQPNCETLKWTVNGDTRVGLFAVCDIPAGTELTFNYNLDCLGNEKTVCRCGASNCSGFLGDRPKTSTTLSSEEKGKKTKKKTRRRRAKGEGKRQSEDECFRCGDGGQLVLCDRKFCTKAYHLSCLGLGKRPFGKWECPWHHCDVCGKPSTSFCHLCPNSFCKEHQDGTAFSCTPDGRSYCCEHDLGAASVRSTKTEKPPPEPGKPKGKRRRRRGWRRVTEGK

Nonstructural protein 1 = Nonstructural protein 1 (Influenza A virus, UniProt Q194T2); type: functional, Influenza A virus (A/California/07/2009(H1N1))
[6] = microbe, parasite or virus in culture; type: functional; conditions: Mycobacterium tuberculosis
[7] = growth suppression of PTEN-null colon cells, dose response, cell-based, HCT116 PTEN knockout (AID 1047); type: functional;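 further: HCT116 colon tumor cells with PTEN knocked out; cells exposed to compound for 60 hours before readout; potency for loss of cell viability measured by luminescence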
[8] = growth suppression of beta-catenin-knockout colon cells, dose response, cell-based, HCT116, human colon tumor (AID 1045); type: functional;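 further: HCT116 colon tumor cells with beta catenin knocked out; cells exposed to compound for 60 hours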
[9] = target: T6, Mannose-6-phosphate isomerase (Homo sapiens, UniProt P34949); experiment: human PMI inhibitors, high substrate, primary screen, biochemical, fluorescence intensity, high mannose 6-phosphate (AID 1220)
T6 sequence (P34949 whole entry): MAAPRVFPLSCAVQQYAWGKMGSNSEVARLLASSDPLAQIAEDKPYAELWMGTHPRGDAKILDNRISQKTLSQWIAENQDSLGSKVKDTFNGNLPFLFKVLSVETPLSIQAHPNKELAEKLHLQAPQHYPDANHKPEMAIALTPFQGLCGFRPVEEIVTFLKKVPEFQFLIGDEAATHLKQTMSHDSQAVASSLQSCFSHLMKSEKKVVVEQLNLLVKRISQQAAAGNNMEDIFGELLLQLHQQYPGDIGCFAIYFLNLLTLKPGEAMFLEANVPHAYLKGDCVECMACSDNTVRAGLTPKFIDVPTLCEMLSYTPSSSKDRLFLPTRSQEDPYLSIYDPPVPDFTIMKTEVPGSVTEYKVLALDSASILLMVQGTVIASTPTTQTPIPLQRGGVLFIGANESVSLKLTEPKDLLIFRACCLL

[10] = target: Induced myeloid leukemia cell differentiation protein Mcl-1 (Homo sapiens, UniProt Q07820); type: functional
Chain of Induced myeloid leukemia cell differentiation protein Mcl-1 (Q07820 whole entry): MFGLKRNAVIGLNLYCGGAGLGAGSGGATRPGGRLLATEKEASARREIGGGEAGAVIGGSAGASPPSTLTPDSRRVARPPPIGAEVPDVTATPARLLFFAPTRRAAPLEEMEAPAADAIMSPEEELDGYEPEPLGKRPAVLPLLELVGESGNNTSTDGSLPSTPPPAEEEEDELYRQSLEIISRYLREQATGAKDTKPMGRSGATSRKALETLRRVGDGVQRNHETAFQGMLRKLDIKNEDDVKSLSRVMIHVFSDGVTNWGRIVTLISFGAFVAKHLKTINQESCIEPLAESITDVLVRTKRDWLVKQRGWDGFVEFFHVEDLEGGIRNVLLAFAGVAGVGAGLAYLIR

Chain of Large T antigen (P03070 whole entry): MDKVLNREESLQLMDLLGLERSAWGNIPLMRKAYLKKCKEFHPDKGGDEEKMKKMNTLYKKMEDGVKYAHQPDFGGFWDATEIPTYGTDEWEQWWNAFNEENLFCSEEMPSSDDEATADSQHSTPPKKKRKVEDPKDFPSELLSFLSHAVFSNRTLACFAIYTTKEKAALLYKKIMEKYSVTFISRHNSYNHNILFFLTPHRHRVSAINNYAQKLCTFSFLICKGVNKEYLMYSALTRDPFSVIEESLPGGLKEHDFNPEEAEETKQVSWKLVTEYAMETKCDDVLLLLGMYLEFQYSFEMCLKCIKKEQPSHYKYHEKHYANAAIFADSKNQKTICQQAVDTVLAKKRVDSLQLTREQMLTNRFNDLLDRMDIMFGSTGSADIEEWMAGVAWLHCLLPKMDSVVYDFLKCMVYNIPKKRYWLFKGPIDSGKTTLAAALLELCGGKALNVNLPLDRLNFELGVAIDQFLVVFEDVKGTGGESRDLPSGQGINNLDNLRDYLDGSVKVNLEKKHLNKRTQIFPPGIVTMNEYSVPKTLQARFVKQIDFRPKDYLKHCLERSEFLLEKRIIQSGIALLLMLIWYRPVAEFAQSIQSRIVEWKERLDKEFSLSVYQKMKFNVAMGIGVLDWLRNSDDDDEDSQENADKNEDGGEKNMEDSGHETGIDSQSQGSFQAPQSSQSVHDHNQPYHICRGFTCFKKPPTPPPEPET
Chain of Nonstructural protein 1 (Q194T2 whole entry): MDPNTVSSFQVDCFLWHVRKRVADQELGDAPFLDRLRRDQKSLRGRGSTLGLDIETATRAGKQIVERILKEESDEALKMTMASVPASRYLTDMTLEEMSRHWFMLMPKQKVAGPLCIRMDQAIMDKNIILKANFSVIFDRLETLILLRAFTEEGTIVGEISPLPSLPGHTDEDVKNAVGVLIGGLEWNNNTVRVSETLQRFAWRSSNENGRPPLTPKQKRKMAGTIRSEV

CC(C)(C)c1cc(C(=O)N/N=C/c2ccc(O)cc2)n(-c2ccccc2)n1
IC50 (Large T antigen): 46.2 µM (active) | IC50 [1]: 122 µM (active)

CC(=O)O[C@H]1C[C@@]2(C)[C@@H](C[C@@H](O)[C@H]3[C@@]4(C)CC[C@@H](O)[C@@H](C)[C@@H]4CC[C@@]32C)/C1=C(\CCC=C(C)C)C(=O)O
EC50 (Streptokinase A): 0.362 µM (active) | IC50 (Large T antigen): 20.4 µM (active) | EC50 (Streptococcus): 0.947 µM (active) | EC50 [2]: 0.161 µM (active)

Cc1c(OC(=O)CNC(=O)OC(C)(C)C)ccc2c3c(c(=O)oc12)CCC3
IC50 (Protein skinhead-1): > 100 µM (inactive) | CC50 [3]: 36.9 µM (active)

CCOC(=O)c1cc(C)n(CCc2c[nH]cn2)c1C
EC50 [4]: 0.0533 µM (active)

CN(C)c1cccc2c1C(=O)c1ccccc1C2=O
AC50 [5]: 5.57 µM (active) | IC50 (Nonstructural protein 1): 10.1 µM (active)

Cc1cncn1CCc1nc2c3ccccc3nc(SCC(=O)Nc3cccc(Cl)c3)n2n1
CC50 [6]: 14.3 µM (active) | EC50 [7]: 13.3 µM (active) | EC50 [8]: 10.7 µM (active)

Nc1cc2nc[nH]c2cc1N
IC50 [9]: > 50 µM (not active) | IC50 [10]: > 54 µM (not active)

COc1ccc(CNCCc2c[nH]c3ccccc23)cc1OC
EC50 [4]: 5.96 µM (active)

COc1ccc(NC(=O)CSC2=C(C#N)C(c3ccco3)C(C(=O)Nc3nc4ccccc4s3)=C(C)N2)cc1 (centres undefined)
CC50 [6]: > 40 µM (active)

Cc1ccccc1N=C(S)NCCc1ccccn1
EC50 [4]: 5.31 µM (active)

CCC(=O)N1CCc2cc(Br)cc(S(=O)(=O)NCCCN(C)Cc3ccccc3)c21
EC50 [4]: 0.0947 µM (active)

Oc1ccc(/C=N/Nc2ccc(C(F)(F)F)cn2)cc1O
IC50 (Large T antigen): 48.3 µM (active)

CCOc1ccc(/C=N/n2nnnc2N)cc1O
IC50 (Large T antigen): 9.64 µM (active)

CC(C)c1ccc(N(CC(=O)Nc2ccc(S(=O)(=O)N3CCOCC3)cc2)S(C)(=O)=O)cc1
IC50 (Protein skinhead-1): > 100 µM (inactive)

COc1ccc(N2CCN(C(=O)c3ccc(CSc4ccccc4)cc3)CC2)cc1
IC50 [10]: 4.83 µM (not active)
